Read-outs that look alike come from different tables or passages of the source.
Assays:
[1] = system: pooled cryopreserved hepatocytes; test: Metabolic stability in hepatocytes (mouse); assay type: in vitro ADME; conditions: 1 μM test compound
Experimental: (§1) 4.6. Metabolic Stability in Hepatocytes
(§2) The aim of this assay is to determine the metabolic stability of the compound in hepatocytes (cryopreserved) of different species. Low hepatocyte stability may result in the formation of unwanted metabolites, high clearance, and therefore is not desirable.
(§3) The decrease in parent was assessed by measuring the percentage remaining by LC-MS/MS analysis.
(§4) A 10 mM stock solution of test compound in DMSO was first diluted in DMSO to 3 mM, and then in modified Krebs-Henseleit buffer (Sigma, K3753) to 5 μM. This compound dilution was added to a suspension of pooled cryopreserved hepatocytes (BioreclamationIVT) at 37° C. under gentle shaking.
(§5) Final reaction conditions were: 1 μM of test compound, 0.03% DMSO, 0.5 million viable hepatocytes/mL, and 75 μL incubation volume.
(§6) Testosterone (1 μM) and 7-hydroxycoumarin (1 μM) were used, respectively as phase I and phase II metabolic reaction controls.
(§7) After 0, 10, 20, 45, 90, 120 and 180 min of incubation, the reaction was terminated with 225 μL of MeCN:MeOH (2:1) containing 100 ng/mL of diclofenac as analytical internal standard. Samples were mixed, centrifuged and the supernatant analyzed by LC-MS/MS.
(§8) The instrument responses (ratios of test compound and internal standard peak areas) were referenced to the zero time point samples (considered as 100%) in order to determine the percentage of compound remaining.
(§9) Plots of percentage compound remaining are used to determine the intrinsic clearance in the hepatocyte incubations using the following equations:
(§10) Scaled Clint[L/h/kg]=Clint[μL/min/10^6 cells]*#(10^6) cells/g liver*60*(1/10^6) Scaled Clint unbound [L/h/kg]=Clint [L/h/kg]/Fu,inc where: fu,inc equals hepatocyte binding, derived from microsomal binding (fu,mic) by following equation: […]

[2] = system: pooled cryopreserved hepatocytes; test: Metabolic stability in hepatocytes (human); assay type: in vitro ADME; conditions: 1 μM test compound
Experimental: as §1, §2, §3, §4, §5, §6, §7, §8, §9, §10

[3] = system: CL097 triggered IFNα and TNFα release in human whole blood; test: Ex vivo human IFNα and TNFα release inhibition (whole blood assay, CL097 triggered); assay type: cell-based; conditions: CL097 2 μg/mL, 3 h 30 min
Source text: 4.10.1. Ex Vivo Human IFNα and TNFα Release Inhibition (Whole Blood Assay)
The aim of the assay is to evaluate the activity of compounds of the invention on the activated TLR/IRAK-4 pathway in an ex vivo human whole blood setting. Toll-like receptors (TLRs) are pattern recognition receptors that recognize a wide variety of microbial molecules, called pathogen-associated molecular patterns (PAMPs). Human TLR7 and TLR8 recognize imidazoquinoline compounds (e.g., CL097—CAS n #1026249-18-2) and single stranded RNAs as their natural ligands. Activation of TLRs leads to the production of several cytokines (e.g., IFNα, TNFα, IL-8, IL-6) by the TLR agonist-treated cells, whereas IRAK4 leads to the production of IFNα. Cytokine release is used as readout in this assay and represents a measure for the level of inhibition of the TLR/IRAK-4 pathway by the tested compound. It should be noted that in the context of the complete organism, other sources for these cytokines exist that are not dependent on the TLR/IRAK-4 pathway, such as e.g., macrophages (upon activation of the Fcγ receptor (Yan et al. 2012)) or T cells (upon activation of the T cell receptor (Brehm, Daniels, and Welsh 2005)).
4.10.1.1. Experimental Design
Blood was collected from healthy volunteers into lithium heparin tubes by venipuncture, then gently inverted several times to prevent clotting and incubated for at least 15 min at 37° C. on a rocking mixer shaker. Then, 100 μL of blood was dispensed into polypropylene 96-well microplate and pre-incubated in duplicate with 0.3% DMSO or test compound at different concentrations (from 30 to 0.01 μM, 3-fold dilutions to get 0.3% DMSO at the final) for 15 min at 37° C. After this pre-incubation, blood was triggered with CL097 (2 μg/mL from 1 mg/mL solution in water; InvivoGen, tlr1-c97) for 3 h 30 min at 37° C. Microtubes were centrifuged at 5000×g for 10 min at 4° C. and approximately 40 μL of plasma were collected into a polystyrene 96-well plate. Plasma could be analyzed freshly, within 30 min after triggering, or frozen at −80° C. Finally, the quantification of TNFα and IFNα were performed in the plasma using AlphaLISA Kit for […] according to the manufacturer's instructions and read on the Ensight (PerkinElmer).
A standard curve was created by plotting on log-log the mean absorbance on the y-axis against the concentration on the x-axis and a 4 PL was made through the points. For each blood sample, the IFNα concentrations of the samples were determined from the fit.
Data were then expressed as a percentage of inhibition (PIN) for each replicate using the formula:
With mean IFNα with CL097=mean IFNα concentration of replicate samples triggered with CL097; IFNαsample1=IFNα concentration of sample 1; mean IFNα with vehicle=mean IFNα concentration of replicate samples treated with vehicle.
For each blood sample, the TNFα concentrations of the samples were determined from the fit. Data were then expressed as a percentage of inhibition (PIN) for each replicate using the formula:
With mean TNFα with CL097=mean TNFα concentration of replicate samples triggered with CL097; TNFαsample1=TNFα concentration of sample 1; mean TNFα with vehicle=mean TNFα concentration of replicate samples treated with vehicle.
Curve fitting for pIC50 determination were generated using mean PIN±sem. Graphs and pIC50 calculations were derived using Prism 5.03 software (GraphPad).

Structure (SMILES)	Mouse (Perc. remaining at 90 min) [1] [%]	Human (Perc. remaining at 90 min) [2] [%]	IC50 ([3]; read-out: IFNα IC50) [nM]	IC50 ([3]; read-out: TNFα IC50) [nM]
[2H]C([2H])([2H])NC(=O)c1cc2nc(CCC(C)(C)O)cn2cc1NC(=O)c1cccc(C(F)(F)F)n1 [Compound 1, 2-(3-hydroxy-3-methyl-butyl)-N-(trideuteriomethyl)-6-[[6-(trifluoromethyl)pyridine-2-carbonyl]amino]imidazo[1,2-a]pyridine-7-carboxamide]	96.3	96.4	1000 to 5000	0.1 to 500
CNC(=O)c1cc2nc(CCC(C)(C)O)cn2cc1NC(=O)c1cccc(C(F)(F)F)n1 [Compound 2, 2-(3-hydroxy-3-methyl-butyl)-N-methyl-6-[[6-(trifluoromethyl)pyridine-2-carbonyl]amino]imidazo[1,2-a]pyridine-7-carboxamide]	103.4	99.9	500 to 1000	0.1 to 500
COc1cc2nc(CCC(C)(C)O)cn2cc1NC(=O)c1cccc(C(F)(F)F)n1 [Compound 3, N-[2-(3-hydroxy-3-methyl-butyl)-7-methoxy-imidazo[1,2-a]pyridin-6-yl]-6-(trifluoromethyl)pyridine-2-carboxamide]	39.9	94.55	1000 to 5000	
COc1cc2nc(CCC(C)(C)O)cn2cc1NC(=O)c1cccn(C)c1=O [Compound 4, N-[2-(3-hydroxy-3-methyl-butyl)-7-methoxy-imidazo[1,2-a]pyridin-6-yl]-1-methyl-2-oxo-pyridine-3-carboxamide]	87.75	99.7	0.1 to 500	
COc1cc2nc(CCC(C)(C)O)cn2cc1NC(=O)c1cccn(C2CC2)c1=O [Compound 5, 1-cyclopropyl-N-[2-(3-hydroxy-3-methyl-butyl)-7-methoxy-imidazo[1,2-a]pyridin-6-yl]-2-oxo-pyridine-3-carboxamide]	100	95.6	0.1 to 500	
COc1cc2nc(CCC(C)(C)O)cn2cc1NC(=O)c1cccc(C)n1 [Compound 6, N-[2-(3-hydroxy-3-methyl-butyl)-7-methoxy-imidazo[1,2-a]pyridin-6-yl]-6-methyl-pyridine-2-carboxamide]	4.5	30.3	0.1 to 500	
COc1cc2nc(CCC(C)(C)O)cn2cc1NC(=O)c1cccc(C(F)F)n1 [Compound 7, 6-(difluoromethyl)-N-[2-(3-hydroxy-3-methyl-butyl)-7-methoxy-imidazo[1,2-a]pyridin-6-yl]pyridine-2-carboxamide]	26.4	78.4	0.1 to 500	
COc1cccc(C(=O)Nc2cn3cc(CCC(C)(C)O)nc3cc2OC)n1 [Compound 8, N-[2-(3-hydroxy-3-methyl-butyl)-7-methoxy-imidazo[1,2-a]pyridin-6-yl]-6-methoxy-pyridine-2-carboxamide]	26.4	78.4		
COc1cc2nc(CCC(C)(C)O)cn2cc1NC(=O)c1cccn(C(F)F)c1=O [Compound 12, 1-(difluoromethyl)-N-[2-(3-hydroxy-3-methyl-butyl)-7-methoxy-imidazo[1,2-a]pyridin-6-yl]-2-oxo-pyridine-3-carboxamide]	88.1	100.7	500 to 1000	
COc1cc2nc(CCC(C)(C)O)cn2cc1NC(=O)c1cccn(CC(F)(F)F)c1=O [Compound 13, N-[2-(3-hydroxy-3-methyl-butyl)-7-methoxy-imidazo[1,2-a]pyridin-6-yl]-2-oxo-1-(2,2,2-trifluoroethyl)pyridine-3-carboxamide]	109.5	105.95		
COc1cc2nc(CCC(C)(C)O)cn2cc1NC(=O)c1cccn(C2CCC2)c1=O [Compound 18, 1-cyclobutyl-N-[2-(3-hydroxy-3-methyl-butyl)-7-methoxy-imidazo[1,2-a]pyridin-6-yl]-2-oxo-pyridine-3-carboxamide]	60.9	93.95		
COc1cc2nc(CCC(C)(C)O)cn2cc1NC(=O)c1cccc(C(C)(F)F)n1 [Compound 20, 6-(1,1-difluoroethyl)-N-[2-(3-hydroxy-3-methyl-butyl)-7-methoxy-imidazo[1,2-a]pyridin-6-yl]pyridine-2-carboxamide]	75.2	75.55		
CCn1cccc(C(=O)Nc2cn3cc(CCC(C)(C)O)nc3cc2OC)c1=O [Compound 23, 1-ethyl-N-[2-(3-hydroxy-3-methyl-butyl)-7-methoxy-imidazo[1,2-a]pyridin-6-yl]-2-oxo-pyridine-3-carboxamide]	89.65	91.45		
COc1cc2nc(CCS(C)(=O)=O)cn2cc1NC(=O)c1cccc(C(F)(F)F)n1 [Compound 24, N-[7-methoxy-2-(2-methylsulfonylethyl)imidazo[1,2-a]pyridin-6-yl]-6-(trifluoromethyl)pyridine-2-carboxamide]	46	73.6	500 to 1000	
COc1cc2nc(CCS(C)(=O)=O)cn2cc1NC(=O)c1cccn(C2CC2)c1=O [Compound 25, 1-cyclopropyl-N-[7-methoxy-2-(2-methylsulfonylethyl)imidazo[1,2-a]pyridin-6-yl]-2-oxo-pyridine-3-carboxamide]	95.05	95.3	0.1 to 500	
CCOc1c(NC(=O)c2cccn(C3CC3)c2=O)cn2cc(CCS(C)(=O)=O)nc2c1F [Compound 39, 1-cyclopropyl-N-[7-ethoxy-8-fluoro-2-(2-methylsulfonylethyl)imidazo[1,2-a]pyridin-6-yl]-2-oxo-pyridine-3-carboxamide]			500 to 1000	500 to 1000
CCNC(=O)c1cc2nc(CCC(C)(C)O)cn2cc1NC(=O)c1cccc(C(F)(F)F)n1 [Compound 49, N-ethyl-2-(3-hydroxy-3-methylbutyl)-6-(6-(trifluoromethyl)picolinamido)imidazo[1,2-a]pyridine-7-carboxamide]	87.15	95.9		

From US20220194938A1, “NOVEL COMPOUNDS AND PHARMACEUTICAL COMPOSITIONS THEREOF FOR THE TREATMENT OF INFLAMMATORY DISORDERS” (GALAPAGOS NV, priority 2019, published 2022)
